Data taken from patent US10688093B2, “Methods, compositions, and uses of novel Fyn kinase inhibitors” (priority 2015, dated 2020).

Target: full-length recombinant human FYN A (Homo sapiens (Human), UniProt P06241)
Experiment: ADP-Glo Kinase Assay of FYN kinase inhibition
Type: biochemical
Settings: primary screen, initial compounds
Excerpt: The chemical library was comprised of the SoftFocus ATP-competitive hinge binding compounds described by Harris, C. J., Hill, R. D., Sheppard, D. W., et al., The Design and Application of Target-Focused Compound Libraries. Combinatorial Chemistry and High Throughput Screening 14:521-31 (2011). The specific pharmacore chemistries included SFK52 comprising 6-[R2]-3-[R1]imidazo[1,2-b] pyridazine compounds, SFK33 comprising N-(3-[R2] imidazo [1,2-b] pyridazin-6-yl) [R1] amine compounds, SFK49 comprising N-(5-[R2] imidazo [2,1-b][1,3,4] thiadiazol-2-yl)[R1]-amine compounds, SFK 40 comprising 5-[R2]-3-[R1] pyridin-2-amine compounds, SFK43 comprising 6-[R2]-3-[R1]imidazo[1,2-a]pyrazine compounds, and SFK63. The chemical structures of the initial 600 potential kinase inhibitors are presented in Table 3, with those chosen for additional analysis presented in Table 4. Comparison of the compounds presented in Table 1 and those of Tables 2, 3 and 4, illustrate the novelty of the chemical structures claimed herein.
FYN kinase (10 micrograms) was from the FYN A Kinase Enzyme System (V3571, Promega UK Ltd.), a full-length recombinant human FYN A containing an N-terminal GST tag of about 85 kDa, expressed by bacullovirus in […] insect cells, supplied at a concentration of 0.1 microgram/microliter in 5×reaction buffer. The FYN substrate, a 12 amino acid peptide of the sequence […], containing a single tyrosine phosphorylation site, was custom synthesized (Peptide Synthetics, Peptide Protein Research, Fareham, UK) and supplied as a 4 mg/ml aqueous solution. All other reagents were obtained from Sigma (Sigma-Aldrich, Gillingham, Dorset, UK), with the exception of UltraPure ATP (V9102, Promega UK Ltd.) and the ATP-competitive broad spectrum protein kinase inhibitor staurosporine (569397, Merck Millipore, Watford, Hertfordshire, UK), or as otherwise indicated.
The assay procedure determines the IC50 of each potential FYN kinase inhibitor by measuring the enzyme catalyzed ATP-dependent phosphorylation of the FYN substrate peptide. The ADP-Glo™ Kinase Assay is specifically designed to quantify kinase activity by measuring the ADP produced in the reaction The reaction buffer comprises 40 mM Tris.HCl (pH 7.5), 20 mM MgCl2, 0.1 mg/ml BSA and 5 microM DTT. Individual compounds within the chemical library were dissolved in DMSO at known concentrations. Briefly, 2.5 microliters of reaction buffer containing 3 picograms of FYN kinase and serial dilutions of each potential FYN kinase inhibitor (9 3-fold dilutions of a 10 micromolar top sample) are placed into each well of a 384 well microtiter plate and incubated at room temperature for 30 minutes. An additional 2.5 microliters of reaction buffer containing 100 picograms of the FYN substrate and 12.5 picomoles of ATP are then added to each well and the reaction carried out for 90 minutes at room temperature. The reactions are terminated by addition of 5 microliters of the ADP-Glo™ Reagent component of the ADP-Glo™ Kinase Assay kit to each well. The ADP-Glo™ Reagent comprises an ATP-dependent adenylate cyclase, an inorganic pyrophosphatase and an excess of staurosporine. The adenylate cyclase converts the remaining ATP to cAMP and pyrophospahte, the pyrophosphatase converts the pyrophosphate to phosphate and the staurosporine inhibits the activity of the FYN kinase, the net effect is to remove all residual ATP while preserving the ADP produced by FYN kinase. The terminated reactions are incubated for 40 minutes at room temperature, prior to addition of the Kinase Detection Reagent component of the ADP-Glo™ Kinase Assay kit to each well. The Kinase Detection Reagent comprises pyruvate kinase, phosphoenol pyruvate (PEP), luciferin and luciferase. The pyruvate kinase converts PEP to pyruvate and in the process generates ATP from the residual ADP present in the terminated reaction. […]

full-length recombinant human FYN A, sequence (P06241 whole entry): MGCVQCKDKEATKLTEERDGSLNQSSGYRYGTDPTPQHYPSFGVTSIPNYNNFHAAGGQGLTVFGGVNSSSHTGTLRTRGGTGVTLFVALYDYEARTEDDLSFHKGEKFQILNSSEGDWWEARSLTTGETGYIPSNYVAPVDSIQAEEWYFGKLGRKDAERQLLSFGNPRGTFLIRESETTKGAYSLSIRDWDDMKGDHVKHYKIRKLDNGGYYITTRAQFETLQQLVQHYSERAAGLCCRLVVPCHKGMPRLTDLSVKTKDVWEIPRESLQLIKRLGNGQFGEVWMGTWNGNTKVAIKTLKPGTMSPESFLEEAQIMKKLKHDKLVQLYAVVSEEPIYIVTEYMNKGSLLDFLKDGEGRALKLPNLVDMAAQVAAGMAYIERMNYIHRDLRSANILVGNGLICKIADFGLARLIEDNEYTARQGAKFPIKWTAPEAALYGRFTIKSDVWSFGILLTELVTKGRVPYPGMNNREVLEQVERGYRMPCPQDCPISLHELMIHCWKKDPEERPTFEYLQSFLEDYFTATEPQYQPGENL

| SMILES | IC50 |
| --- | --- |
| CC(=O)Nc1cccc(-c2cnc3ccc(N[C@H](CO)C(C)C)nn23)c1 [229_0254_0081, N-[3-[6-[[(1S)-1-(hydroxymethyl)-2-methyl-propyl]amino]imidazo[1,2-b]pyridazin-3-yl]phenyl] acetamide] | 801 nM |
| CC(C)[C@@H](CO)Nc1ccc2ncc(-c3ccc(C#N)cc3)n2n1 [229_0254_0086, 4-[6-[[(1S)-1-(hydroxymethyl)-2-methyl-propyl]amino]imidazo[1,2-b]pyridazin-3-yl]benzonitrile] | 3180 nM |
| CC(C)[C@@H](CO)Nc1ccc2ncc(-c3ccc(N)cc3)n2n1 [229_0254_0333, (2S)-2-[[3-(4-aminophenyl)imidazo[1,2-b]pyridazin-6-yl]amino]-3-methyl-butan-1-ol] | 3050 nM |
| c1ccc(CNc2ccc3ncc(-c4ccc5c(c4)OCO5)n3n2)nc1 [229_4007_0068, 3-(1,3-benzodioxol-5-yl)-N-(2-pyridylmethyl) imidazo[1,2-b]pyridazin-6-amine] | 797 nM |
| COc1cccc(-c2cnc3ccc(NCC4CC4)nn23)c1 [229_4051_4140, N-(cyclopropyl-methyl)-3-(3-methoxyphenyl) imidazo[1,2-b]pyridazin-6-amine] | 3300 nM |
| COc1cc(-c2cnc3ccc(NCc4ccc(C)cc4C)nn23)ccc1O [229_4319_0314, 4-[6-[(2,4-dimethylphenyl)methylamino]imidazo[1,2-b]pyridazin-3-yl]-2-methoxy-phenol] | 5310 nM |
| COc1cccc(-c2ccc3c(-c4ccc(C(=O)NCCCN(C)C)cc4)n[nH]c3n2)c1F [267_0180_7936, N-[3-(dimethylamino)propyl]-4-[6-(2-fluoro-3-methoxy-phenyl)-1H-pyrazolo[3,4-b]pyridin-3-yl]benzamide] | 7340 nM |
| COc1ccc(Nc2ccn3ncc(-c4cccc(O)c4)c3n2)cn1 [294_0042_0284, 3-[5-[(6-methoxy-3-pyridyl)amino]pyrazolo[1,5-a]pyrimidin-3-yl]phenol] | 3390 nM |
| COc1cccc(-c2cnn3ccc(Nc4ccc(OC)nc4)nc23)c1 [294_0042_4140, 3-(3-methoxyphenyl)-N-(6-methoxy-3-pyridyl)pyrazolo [1,5-a]pyrimidin-5-amine] | 5310 nM |
| COc1ccc(Nc2ccn3ncc(-c4cccc(C(C)=O)c4)c3n2)cn1 [294_0042_4145, 1-[3-[5-[(6-methoxy-3-pyridyl)amino]pyrazolo[1,5-a]pyrimidin-3-yl]phenyl] ethanone] | 1640 nM |
| COc1cncc(-c2cnn3ccc(Nc4ccc(N5CCOCC5)cc4)nc23)c1 [294_0088_0196, 3-(5-methoxy-3-pyridyl)-N-(4-morpholino-phenyl)pyrazolo [1,5-a]pyrimidin-5-amine] | 2250 nM |
| Cc1ccc(Nc2ccn3ncc(-c4cccc(O)c4)c3n2)cc1NS(C)(=O)=O [294_0123_0284, N-[5-[[3-(3-hydroxyphenyl)pyrazolo[1,5-a]pyrimidin-5-yl]amino]-2-methyl-phenyl]methane-sulfonamide] | 3170 nM |
| Nc1cccc(-c2cnn3ccc(NCc4cccnc4)nc23)c1 [294_4003_0005, 3-(3-amino-phenyl)-N-(3-pyridylmethyl) pyrazolo[1,5-a]pyrimidin-5-amine] | 2510 nM |
| COc1ccc(-c2cnn3ccc(NCc4cccnc4)nc23)cc1OC [294_4003_0079, 3-(3,4-dimethoxy-phenyl)-N-(3-pyridylmethyl) pyrazolo[1,5-a]pyrimidin-5-amine] | 1640 nM |
| COc1ccccc1-c1cnn2ccc(NCc3cccnc3)nc12 [294_4003_0083, 3-(2-methoxyphenyl)-N-(3-pyridylmethyl) pyrazolo[1,5-a]pyrimidin-5-amine] | 1220 nM |
| COc1cc(-c2cnn3ccc(NCc4cccnc4)nc23)cc(OC)c1OC [294_4003_0087, N-(3-pyridylmethyl)-3-(3,4,5-trimethoxy-phenyl) pyrazolo[1,5-a]pyrimidin-5-amine] | 2350 nM |
| COc1ccc(-c2cnn3ccc(Nc4ccc(C(C)C)cc4)nc23)cc1 [294_6937_0280, N-(4-isopropylphenyl)-3-(4-methoxyphenyl) pyrazolo[1,5-a]pyrimidin-5-amine] | 4180 nM |
| Cc1cc(-c2cnc(N)c(-c3ccncc3)c2)cc(C)c1O [382_0069_0315, 4-[6-amino-5-(4-pyridyl)-3-pyridyl]-2,6-dimethyl-phenol] | 1700 nM |
| COc1cc(-c2cc(-c3ccc(OCCCN(C)C)nc3)cnc2N)cc(OC)c1OC [382_0087_0002, 5-[6-[3-(dimethylamino)propoxy]-3-pyridyl]-3-(3,4,5-trimethoxy-phenyl)pyridin-2-amine] | 530 nM |
| COc1cc(-c2cc(-c3ccc(N4CCN(C)CC4)cc3)cnc2N)cc(OC)c1OC [382_0087_0218, 5-[4-(4-methylpiperazin-1-yl)phenyl]-3-(3,4,5-trimethoxyphenyl)pyridin-2-amine] | 322 nM |

Next, values leading:

| IC50 | SMILES |
| --- | --- |
| 2970 nM | COc1cc(-c2cnc(N)c(-c3cccc(N)c3)c2)cc(OC)c1OC [382_0005_0087, 3-(3-aminophenyl)-5-(3,4,5-trimethoxy-phenyl)pyridin-2-amine] |
| 893 nM | COc1cc(-c2cc(-c3ccccc3)cnc2N)cc(OC)c1OC [382_0087_0061, 5-phenyl-3-(3,4,5-trimethoxy-phenyl)pyridin-2-amine] |
| 9010 nM | COc1cc(-c2cc(-c3ccccc3Oc3ccccc3)cnc2N)cc(OC)c1OC [382_0087_0063, 5-(2-phenoxyphenyl)-3-(3,4,5-trimethoxy-phenyl)pyridin-2-amine] |
| 2690 nM | COc1cc(-c2cc(-c3cc4ccccc4s3)cnc2N)cc(OC)c1OC [382_0087_0076, 5-(benzothiophen-2-yl)-3-(3,4,5-trimethoxyphenyl) pyridin-2-amine] |
| 595 nM | COc1cc(-c2cc(-c3cccc(N(C)C)c3)cnc2N)cc(OC)c1OC [382_0087_0135, 5-[3-(dimethyl-amino)phenyl]-3-(3,4,5-trimethoxyphenyl) pyridin-2-amine] |
| 485 nM | COc1cc(-c2cc(-c3cccc(C(=O)NCCO)c3)cnc2N)cc(OC)c1OC [382_0087_0192, 3-[6-amino-5-(3,4,5-trimethoxy-phenyl)-3-pyridyl]-N-(2-hydroxyethyl) benzamide] |
| 2980 nM | COc1ccc(-c2cnc(N)c(-c3cc(OC)c(OC)c(OC)c3)c2)cc1 [382_0087_0280, 5-(4-methoxyphenyl)-3-(3,4,5-trimethoxy-phenyl)pyridin-2-amine] |
| 723 nM | COc1cc(-c2cc(-c3cccc(O)c3)cnc2N)cc(OC)c1OC [382_0087_0284, 3-[6-amino-5-(3,4,5-trimethoxy-phenyl)-3-pyridyl]phenol] |
| 1060 nM | COc1ccc(-c2cnc(N)c(-c3cc(OC)c(OC)c(OC)c3)c2)cn1 [382_0087_0311, 5-(6-methoxy-3-pyridyl)-3-(3,4,5-trimethoxyphenyl) pyridin-2-amine] |
| 1520 nM | COc1cc(-c2cc(-c3cccc(F)c3)cnc2N)cc(OC)c1OC [382_0087_0313, 5-(3-fluorophenyl)-3-(3,4,5-trimethoxy-phenyl)pyridin-2-amine] |
| 712 nM | COc1cc(-c2cc(-c3cc(C)c(O)c(C)c3)cnc2N)cc(OC)c1OC [382_0087_0315, 4-[6-amino-5-(3,4,5-trimethoxyphenyl)-3-pyridyl]-2,6-dimethyl-phenol] |
| 971 nM | COc1cc(-c2cc(-c3ccc(N)cc3)cnc2N)cc(OC)c1OC [382_0087_0333, 5-(4-aminophenyl)-3-(3,4,5-trimethoxy-phenyl)pyridin-2-amine] |
| 2860 nM | COc1cc(-c2cc(-c3ccc(F)cc3)cnc2N)cc(OC)c1OC [382_0087_0339, 5-(4-fluoro-phenyl)-3-(3,4,5-trimethoxy-phenyl)pyridin-2-amine] |
